Test results as given in PubChem BioAssay AID1963836 (Molecular Pharmacology Branch, DTP, NCI, 2024).

Tested on: 857933-349-R-J2-PDC complex spheroid viability
Experiment: Anticancer human tumor 857933-349-R-J2-PDC patient-derived colon adenocarcinoma cell line growth inhibition [POLQ]
Settings: for IC50: curve of first compound; for viability, T/C: stronger effect = lower value
How it was run: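 Complex spheroid viability model combining PDC tumour cells with endothelial (HUVEC) and MSC stromal cells. Novobiocin, ART-558 or RP6685 were tested singly and in combination with standard and investigational anticancer drugs. Each was titrated in half-log steps from near clinical Cmax, or from 10 microM where Cmax was unknown.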

[1] = second compound 0.0316 µM, first compound 0.0316 µM
[2] = second compound 0.0316 µM, first compound 0.1 µM
[3] = second compound 0.0316 µM, first compound 0.316 µM
[4] = second compound 0.0316 µM, first compound 1 µM
[5] = second compound 0.0316 µM, first compound 3.16 µM
[6] = second compound 0.0316 µM, first compound 10 µM
[7] = second compound 0.1 µM, first compound 0.0316 µM
[8] = second compound 0.1 µM, first compound 0.1 µM
[9] = second compound 0.1 µM, first compound 0.316 µM
[10] = second compound 0.1 µM, first compound 1 µM
[11] = second compound 0.1 µM, first compound 3.16 µM
[12] = second compound 0.1 µM, first compound 10 µM
[13] = second compound 0.316 µM, first compound 0.0316 µM
[14] = second compound 0.316 µM, first compound 0.1 µM
[15] = second compound 0.316 µM, first compound 0.316 µM
[16] = second compound 0.316 µM, first compound 1 µM
[17] = second compound 0.316 µM, first compound 3.16 µM
[18] = second compound 0.316 µM, first compound 10 µM
[19] = second compound 1 µM, first compound 0.0316 µM
[20] = second compound 1 µM, first compound 0.1 µM
[21] = second compound 1 µM, first compound 0.316 µM
[22] = second compound 1 µM, first compound 1 µM
[23] = second compound 1 µM, first compound 3.16 µM
[24] = second compound 1 µM, first compound 10 µM
[25] = second compound 3.16 µM, first compound 0.0316 µM
[26] = second compound 3.16 µM, first compound 0.1 µM
[27] = second compound 3.16 µM, first compound 0.316 µM
[28] = second compound 3.16 µM, first compound 1 µM
[29] = second compound 3.16 µM, first compound 3.16 µM
[30] = second compound 3.16 µM, first compound 10 µM
[31] = second compound 10 µM, first compound 0.0316 µM
[32] = second compound 10 µM, first compound 0.1 µM
[33] = second compound 10 µM, first compound 0.316 µM
[34] = second compound 10 µM, first compound 1 µM
[35] = second compound 10 µM, first compound 3.16 µM
[36] = second compound 10 µM, first compound 10 µM
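Note: spheroids exposed to compounds for seven days before readout.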

C#Cc1c(F)ccc2cc(O)cc(-c3ncc4c(N5CC6CCC(C5)N6)nc(OCC56CCCN5CC(F)C6)nc4c3F)c12 (stereo unspecified) + COC1C(OC(N)=O)C(O)C(Oc2ccc3c(O)c(NC(=O)c4ccc(O)c(CC=C(C)C)c4)c(=O)oc3c2C)OC1(C)C
IC50 (second compound 0.0316 µM): > 10 µM | IC50 (second compound 0.1 µM): > 10 µM | IC50 (second compound 0.316 µM): > 10 µM | IC50 (second compound 1 µM): > 10 µM | IC50 (second compound 3.16 µM): > 10 µM | IC50 (second compound 10 µM): > 10 µM | viability, T/C [1]: 106% | viability, T/C [2]: 94.9% | viability, T/C [3]: 92.3% | viability, T/C [4]: 79.2% | viability, T/C [5]: 70.8% | viability, T/C [6]: 99.2% | viability, T/C [7]: 102% | viability, T/C [8]: 102% | viability, T/C [9]: 94% | viability, T/C [10]: 80.7% | viability, T/C [11]: 86.6% | viability, T/C [12]: 92.2% | viability, T/C [13]: 98% | viability, T/C [14]: 96.7% | viability, T/C [15]: 81.2% | viability, T/C [16]: 88.6% | viability, T/C [17]: 84.9% | viability, T/C [18]: 78.1% | viability, T/C [19]: 114% | viability, T/C [20]: 95.1% | viability, T/C [21]: 79.3% | viability, T/C [22]: 82.3% | viability, T/C [23]: 95.5% | viability, T/C [24]: 90.8% | viability, T/C [25]: 96.4% | viability, T/C [26]: 98.6% | viability, T/C [27]: 96% | viability, T/C [28]: 119% | viability, T/C [29]: 88.1% | viability, T/C [30]: 94.5% | viability, T/C [31]: 98.3% | viability, T/C [32]: 89.8% | viability, T/C [33]: 93% | viability, T/C [34]: 77.6% | viability, T/C [35]: 85.4% | viability, T/C [36]: 104%

CC1COCCN1c1cc(C2(O)CC3CCC(C2)O3)c2cnn(-c3ccn[nH]3)c2n1 (stereo unspecified) + COC1C(OC(N)=O)C(O)C(Oc2ccc3c(O)c(NC(=O)c4ccc(O)c(CC=C(C)C)c4)c(=O)oc3c2C)OC1(C)C
IC50 (second compound 0.0316 µM): 0.249 µM | IC50 (second compound 0.1 µM): 0.279 µM | IC50 (second compound 0.316 µM): 0.334 µM | IC50 (second compound 1 µM): 0.285 µM | IC50 (second compound 3.16 µM): 0.171 µM | IC50 (second compound 10 µM): 0.339 µM | viability, T/C [1]: 76.3% | viability, T/C [2]: 61.5% | viability, T/C [3]: 48.2% | viability, T/C [4]: 39% | viability, T/C [5]: 40.7% | viability, T/C [6]: 49.7% | viability, T/C [7]: 111% | viability, T/C [8]: 57.7% | viability, T/C [9]: 59.4% | viability, T/C [10]: 37.7% | viability, T/C [11]: 40.2% | viability, T/C [12]: 47% | viability, T/C [13]: 63.3% | viability, T/C [14]: 68.1% | viability, T/C [15]: 50.3% | viability, T/C [16]: 41% | viability, T/C [17]: 43.1% | viability, T/C [18]: 46.7% | viability, T/C [19]: 94.3% | viability, T/C [20]: 58.1% | viability, T/C [21]: 50.4% | viability, T/C [22]: 41.2% | viability, T/C [23]: 49.9% | viability, T/C [24]: 51.4% | viability, T/C [25]: 75.2% | viability, T/C [26]: 54.5% | viability, T/C [27]: 45.5% | viability, T/C [28]: 38.1% | viability, T/C [29]: 43.3% | viability, T/C [30]: 50% | viability, T/C [31]: 71.5% | viability, T/C [32]: 63.6% | viability, T/C [33]: 52.8% | viability, T/C [34]: 36.7% | viability, T/C [35]: 45.6% | viability, T/C [36]: 47.9%

CCc1cc2c(N3CCc4c(cc(Cn5ccnc5)cc4-c4cn(C)nc4C(F)(F)F)C3=O)cc(C)nc2c(OC)n1 + COC1C(OC(N)=O)C(O)C(Oc2ccc3c(O)c(NC(=O)c4ccc(O)c(CC=C(C)C)c4)c(=O)oc3c2C)OC1(C)C
IC50 (second compound 0.0316 µM): > 10 µM | IC50 (second compound 0.1 µM): > 10 µM | IC50 (second compound 0.316 µM): > 10 µM | IC50 (second compound 1 µM): > 10 µM | IC50 (second compound 3.16 µM): > 10 µM | IC50 (second compound 10 µM): > 10 µM | viability, T/C [1]: 116% | viability, T/C [2]: 80.3% | viability, T/C [3]: 72.3% | viability, T/C [4]: 61.8% | viability, T/C [5]: 68.5% | viability, T/C [6]: 56.2% | viability, T/C [7]: 97.5% | viability, T/C [8]: 77.6% | viability, T/C [9]: 95.5% | viability, T/C [10]: 58.6% | viability, T/C [11]: 68.2% | viability, T/C [12]: 52.9% | viability, T/C [13]: 117% | viability, T/C [14]: 88.3% | viability, T/C [15]: 75.3% | viability, T/C [16]: 61.7% | viability, T/C [17]: 82.9% | viability, T/C [18]: 67.5% | viability, T/C [19]: 102% | viability, T/C [20]: 95.3% | viability, T/C [21]: 78.8% | viability, T/C [22]: 60.2% | viability, T/C [23]: 52.8% | viability, T/C [24]: 57.7% | viability, T/C [25]: 77.7% | viability, T/C [26]: 76.1% | viability, T/C [27]: 89.7% | viability, T/C [28]: 80.1% | viability, T/C [29]: 57.5% | viability, T/C [30]: 68.3% | viability, T/C [31]: 71.3% | viability, T/C [32]: 86.3% | viability, T/C [33]: 72.7% | viability, T/C [34]: 71.3% | viability, T/C [35]: 91.8% | viability, T/C [36]: 58%
